Test results taken from patent US12053459B2, “CDK2 inhibitors and methods of using the same” (Cedilla Therapeutics, Inc., priority 2021, dated 2024).

Legend:
[1] = target: T1, CDK2/Cyclin E1(14-475) (Homo sapiens, UniProt P24941); assay: Caliper LabChip EZ Reader mobility shift assay, inhibition of CDK2/Cyclin E1 activity; type: biochemical; conditions: class symbols A-D
How it was run: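 Mobility-shift readout of fluorescent peptide (1.5 μM final) phosphorylation by 2.5 nM CDK2/Cyclin E1(14-475) at 100 μM ATP, pH 7.5. Compounds pre-incubated 30 min with enzyme before substrate addition; 100-min reaction halted by EDTA, normalized % activity fitted to four-parameter curve for IC50.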

[2] = test system: Kuramochi cells; assay: BrdU cell proliferation assay (colorimetric ELISA), Kuramochi cells; type: cell-based; conditions: class symbols A-D
How it was run: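 Proliferation was read as BrdU incorporation: a 1 h pulse, then fixation and peroxidase-antibody ELISA at 450 nm, with values normalized to DMSO after empty-well subtraction. Treatment lasted 4 days on Kuramochi cells seeded at 2,000/well, using four 3-fold compound dilutions from 10 mM stocks. RB^KO Kuramochi cells were run in parallel for specificity.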

[3] = target: T1, CDK2/Cyclin E1(14-475); assay: HotSpot kinase inhibition assay (radiometric, Reaction Biology Corporation); type: biochemical; conditions: 10 μM ATP, class symbols A-D
Description: Inhibition of a select panel of CDK2/CCNE1 activities in the presence of compounds of the present disclosure was evaluated using the HotSpot™ assay (proprietary to Reaction Biology Corporation). In the assay, activated CDK2/Cyclin E1 catalyzes the transfer of radioactive phosphate to amino acid residues of peptide or protein substrates, which are detected radiometrically. […] Reactions contained 20 mM HEPES pH 7.5, 10 mM MgCl2, 1 mM EGTA, 2 mM DTT, 0.02% Brij35, 0.02 mg/mL BSA, 0.1 mM Na3VO4, 1% DMSO, 1.5 nM CDK2/Cyclin E1(14-475), 10 μM ATP, and 20 μM Histone H1 protein isolated from calf thymus (Sigma).
CDK2/Cyclin E1 […] and Histone H1 were mixed in reaction buffer. To this mixture, was added dose titrations of inhibitor compounds in 100% DMSO by acoustic transfer. The compound mixtures were incubated for 20 minutes, then the kinase reactions were initiated by the addition of a mixture of ATP and ^33P ATP for final concentrations of 10 μM total ATP, 20 μM Histone H1, and 1.5 nM CDK2/Cyclin E1 (14-475). The reactions were carried out for 120 minutes, then spotted on a P81 ion exchange filter paper, and extensively washed with 0.75% phosphoric acid. The resulting radioactive counts were normalized to yield % activity, plotted against compound concentration, and fit to a four-parameter equation to determine the IC50 for each compound.

SMILES	IC50 [1] [µM]	IC50 [2] [µM]	IC50 [3] [µM]
CNC(=O)[C@H](CCCc1ccccc1)NC(=O)C1CN(C(=O)Cc2c[nH]c3cc(Cl)ccc23)CC2CN(C(=O)c3ccc4cccn4c3)CC21 (stereo partly drawn) [I-43]	> 10	> 10	–
COc1cc(C(=O)N2CC3CN(C(=O)Cc4c[nH]c5cc(Cl)ccc45)CC(C(=O)N[C@@H](C)C(=O)N(C)CCCc4ccccc4)C3C2)ccc1OC(C)C (stereo partly drawn) [I-103]	0.5 to 5	> 10	–
CNC(=O)[C@H](CCCc1ccccc1)NC(=O)C1CN(C(=O)C2(C)CCOCC2)CC2CN(C(=O)c3ccc(OC(C)C)c(OC)c3)CC21 (stereo partly drawn) [I-169]	> 10	> 10	–
CNC(=O)[C@H](CCCc1ccccc1)NC(=O)C1CN(C(=O)Cc2c[nH]c3cc(Cl)ccc23)CC2CN(C(=O)c3ccc(C#N)cn3)CC21 (stereo partly drawn) [I-15]	> 10	> 10	–
COc1cc(C(=O)N2CC3CN(C(=O)Cc4c[nH]c5cc(Cl)ccc45)CC(C(=O)Nc4ccc(Cc5ccccc5)nc4)C3C2)ccc1OC(C)C (stereo not drawn) [I-241]	> 10	> 10	–
CNC(=O)[C@H](CCCc1ccccc1)NC(=O)C1CN(C(=O)Cc2c[nH]c3cc(Cl)ccc23)CC2CN(C(=O)c3cnc(C4CC4)nc3)CC21 (stereo partly drawn) [I-44]	> 10	> 10	–
CNC(=O)[C@H](CCCC1CCC(O)CC1)NC(=O)C1CN(C(=O)Cc2c[nH]c3cc(Cl)ccc23)CC2CN(C(=O)c3ccc(OC(C)C)c(OC)c3)CC21 (stereo partly drawn) [I-116]	> 10	> 10	–
CNC(=O)[C@H](CCCc1ccccc1)NC(=O)C1CN(C(=O)c2cc3cc(C)ccc3[nH]2)CC2CN(C(=O)c3ccc(OC(C)C)c(OC)c3)CC21 (stereo partly drawn) [I-162]	> 10	> 10	–
CNC(=O)[C@H](CCCc1ccccc1)NC(=O)C1CN(C(=O)Cc2c[nH]c3cc(Cl)ccc23)CC2CN(C(=O)c3nc4ccccc4[nH]3)CC21 (stereo partly drawn) [I-12]	> 10	> 10	–
CNC(=O)[C@H](CCCc1ccc(C(F)(F)F)cc1)NC(=O)C1CN(C(=O)Cc2c[nH]c3cc(Cl)ccc23)CC2CN(C(=O)c3ccc(OC(C)C)c(OC)c3)CC21 (stereo partly drawn) [I-133]	0.5 to 5	> 10	–
CNC(=O)[C@H](CCCc1ccccc1)NC(=O)C1CN(C(=O)Cc2c[nH]c3cc(Cl)c(Cl)cc23)CC2CN(C(=O)c3ccc(OC(C)C)c(OC)c3)CC21 (stereo partly drawn) [I-227]	≤ 0.5	> 10	–
CNC(=O)[C@H](CCCc1ccccc1)NC(=O)C1CN(C(=O)c2cccc3cc[nH]c23)CC2CN(C(=O)c3ccc(OC(C)C)c(OC)c3)CC21 (stereo partly drawn) [I-213]	> 10	> 10	–
CNC(=O)[C@H](CCCc1ccccc1)NC(=O)C1CN(C(=O)CCc2c[nH]c3ccccc23)CC2CN(C(=O)c3ccc(OC(C)C)c(OC)c3)CC21 (stereo partly drawn) [I-157]	> 10	> 10	–
CNC(=O)[C@H](CCCc1ccccc1)NC(=O)C1CN(C(=O)Cc2c[nH]c3ccc(Cl)cc23)CC2CN(C(=O)c3ccc(OC(C)C)c(OC)c3)CC21 (stereo partly drawn) [I-220]	> 10	> 10	–
CNC(=O)[C@@H](CCCC1CCC(C(F)(F)F)CC1)NC(=O)C1CN(C(=O)Cc2c[nH]c3cc(Cl)ccc23)CC2CN(C(=O)c3ccc(OC(C)C)c(OC)c3)CC21 (stereo partly drawn) [I-104]	> 10	> 10	–
CNC(=O)[C@H](CCCc1ccccc1)NC(=O)C1CN(C(=O)Cc2c[nH]c3cc(OC)ccc23)CC2CN(C(=O)c3ccc(OC(C)C)c(OC)c3)CC21 (stereo partly drawn) [I-235]	–	–	1 to 10
CNC(=O)[C@H](Cc1ccc(O)cc1)NC(=O)C1CN(C(=O)Cc2c[nH]c3cc(Cl)ccc23)CC2CN(C(=O)c3ccc(OC(C)C)c(OC)c3)CC21 (stereo partly drawn) [I-123]	–	–	10 to 100
CNC(=O)[C@H](CCCc1ccccc1)NC(=O)C1CN(C(=O)Cc2c[nH]c3cc(Cl)ccc23)CC2CN(C(=O)c3cc4ccccc4cn3)CC21 (stereo partly drawn) [I-37]	> 10	> 10	–
CCOc1cccc(C(=O)N2CC3CN(C(=O)Cc4c[nH]c5cc(Cl)ccc45)CC(C(=O)N[C@@H](CCCc4ccccc4)C(=O)NC)C3C2)c1 (stereo partly drawn) [I-67]	–	–	10 to 100
CNC(=O)[C@H](CCCc1ccccc1)NC(=O)C1CN(C(=O)Cc2c[nH]c3cc(Cl)ccc23)CC2CN(C(=O)c3cc(C4CC4)on3)CC21 (stereo partly drawn) [I-81]	–	> 10	10 to 100
CNC(=O)[C@H](CCCc1ccccc1)NC(=O)C1CN(C(=O)c2c[nH]c3c(C)cccc23)CC2CN(C(=O)c3ccc(OC(C)C)c(OC)c3)CC21 (stereo partly drawn) [I-191]	> 10	> 10	–
